The text below walks through data of US20140142343A1, “Novel Fragrance Compounds” (Givaudan Nederland Services B.V., priority 2006, published 2014).

One assay concerns Ant (Lasius niger). The experiment in a line: Insect repellency against ants, half-treated vinyl tiles. The class given is in vivo. How it is done: (§1) Compound 1 was tested for insect repellency against mosquitoes and ants. In all cases, repellency is calculated with reference to an untreated surface having 0% repellency.
Ant test is completed with a simplified general purpose cleaner formulation: […]
This product is applied to the floor tiles (vinyl) at the rate of 20 g·m^−2.
Ant (Lasius niger) 300 mm square vinyl tiles half treated with 0.9 ml test material and left for 2 hours. Glass arena 250 mm square, 75 mm high and fluon coated, open to air. Arena illuminated from 1.0 m above by four 18 W fluorescent lamps. 50 black ants per arena counted every 5 minutes. Arena turned 180 degrees every 10 minutes. Any ants injured or escaping replaced. Mosquito (Aedes aegyptii) A perspex box approx 18 inch cube, with sleeved circular entry was used as the test cage. The box contained 5 day old, mated honey fed females. The area of arm to be tested was measured. The test material was applied from ethanol solution at a rate of 0.2 mg test material per square centimetre. A similar area of the other arm was used for the control. A pair of disposable gloves was worn on the hands throughout the test. In turn each arm was inserted into the cage for 30 seconds. This was repeated 3 times. The number of mosquitoes landing on the arm was recorded every five seconds. […]

The test system of assay [1] is Staphylococcus aureus ATCC 6538. The experiment in a line: Minimum Inhibitory Concentration (MIC). The following applies: for MIC: ATCC6538, Staphylococcus aureus ATCC 6538, change in absorbance <0.2 A540; for activity against Staphylococcus aureus (in words): summary statement. The class given is cell-based. The method, then:
One property that characterises the effectiveness of a compound or composition to inhibit the growth of bacteria, is the minimum inhibitory concentration, or MIC, of the compound or composition. The MIC is defined as the minimum amount of a compound or composition (e.g. in ppm) at which little or no bacterial growth is observed. […] The minimum inhibitory concentration of a compound was determined by the following method. A culture of the test strains of bacteria Staphylococcus aureus ATCC 6538 (American Type Culture Collection, P.O. Box 1549, Manassas, Va. 20108, USA) was incubated for 16-24 hours, in a shaken flask at 37° C. The cultures was then diluted in sterile 0.1% TSB (Oxoid, Basingstoke, UK) to give a concentration of bacteria of approximately 10^6 colony forming units (cfu) per ml. Fragrance compounds were prepared in sterile TSB to give stock solutions with final concentrations of 40,000 ppm. The absorbance at 540 nm (hereinafter referred to for brevity and simplicity as “A540”) was used as a measure of turbidity resulting from bacterial growth. The MIC was taken as the concentration of ingredient required to inhibit growth so that the average change in absorbance during the incubation period was <0.2 A540.

Assay [2] deals with Mosquito (Aedes aegyptii). As to the kind of experiment: Insect repellency against mosquitoes, treated arm in cage. The class given is in vivo. How it is done:
as §1
Ant (Lasius niger) 300 mm square vinyl tiles half treated with 0.9 ml test material and left for 2 hours. Glass arena 250 mm square, 75 mm high and fluon coated, open to air. Arena illuminated from 1.0 m above by four 18 W fluorescent lamps. 50 black ants per arena counted every 5 minutes. Arena turned 180 degrees every 10 minutes. Any ants injured or escaping replaced. Mosquito (Aedes aegyptii) A perspex box approx 18 inch cube, with sleeved circular entry was used as the test cage. The box contained 5 day old, mated honey fed females. The area of arm to be tested was measured. The test material was applied from ethanol solution at a rate of 0.2 mg test material per square centimetre. A similar area of the other arm was used for the control. A pair of disposable gloves was worn on the hands throughout the test. In turn each arm was inserted into the cage for 30 seconds. This was repeated 3 times. The number of mosquitoes landing on the arm was recorded every five seconds. As penetration of the skin occurs within 5 seconds the arm was flicked at this frequency to dislodge the flies.

In general, MIC refers to the lowest concentration that inhibits growth of the organism. Low values mean greater potency, high ones weaker potency.

Converted amounts (≈) assume the structure as drawn.

The molecule `CC(C)(C)C1CCCC(CCC=O)C1` (stereo not shown) [Compound 1, 3-(3-tert-butylcyclohexyl)propanal] showed a repellency against ants in the assay on Ant (Lasius niger) (over first hour, wrt untreated surface, 1.0% in general purpose cleaner formulation) of 72%. Also, the “repellency properties against ants (in words)” value in the assay on Ant (Lasius niger) (summary statement) is listed as “excellent repellency properties”. Further, in assay [1], the MIC came to 312 mg/L (≈ 1590 µM) and the “activity against Staphylococcus aureus (in words)” value is given as “excellent activity against Staphylococcus aureus”. In assay [2] (after 10 minutes, wrt untreated surface, 0.2 mg test material per square centimetre), this molecule gave a repellency against mosquitoes of 100%. Also, in assay [2] (summary statement), the “repellency properties against mosquitoes (in words)” value was “excellent repellency properties”.

In the case of `CC1CCCC(CCC=O)C1` (stereo not shown) [Compound 4, 3-(3-methylcyclohexyl)propanal], in assay [1], the MIC is over 5000 mg/L.

Take `CC(C)C1CCCC(C(C)CC=O)C1` (stereo not shown) [Compound 2, 3-(3-isopropylcyclohexyl)butanal]: in assay [1], the minimal inhibitory concentration (MIC) amounted to 312 mg/L (≈ 1590 µM) and the “activity against Staphylococcus aureus (in words)” value was “excellent activity against Staphylococcus aureus”.

In assay [1], `CC(C=O)CC1CCCC(C)C1` (stereo not shown) [Compound 3, 2-methyl-3-(3-methylcyclohexyl)propanal] came in with an MIC of 5000 mg/L (≈ 29700 µM).
